# Tested on: PPARγ target genes
# Assay: PPARγ target gene expression (real-time qPCR) in adipose tissue, pial arteries and PA, NP Sprague Dawley rats
# Assay type: in vivo, rat
# Text: Animals and Treatment Groups: All procedures were approved by the Institutional Animal Care and Use Committee and conducted in accordance with the National Institutes of Health Guide for the Care and Use of Laboratory Animals. Female virgin NP Sprague Dawley rats (250-300 g, 14-16 weeks, Charles River, Canada) were used for all experiments and housed in the University of Vermont Animal Care Facility. Animals were randomly selected and grouped as untreated (N=4), treated with recombinant human relaxin-2 (relaxin, 4 μg/hr; N=14), relaxin plus a specific PPARγ inhibitor GW9662 (10 mg/kg daily in food; N=8), or vehicle (20 mM sodium acetate; N=14) for 10 days through osmotic minipumps (Alzet 2ML2, Durect Corp., Cupertino, Calif., USA). GW9662 treatment was started 1 day before and for the duration of relaxin treatment to ensure PPARγ was inhibited. Animals were anesthetized with 3% isoflurane and minipumps implanted subcutaneously in the back of the neck. All animals received post-surgical analgesic (buprenorphine, 50 μg/kg, s.c.). Relaxin infusion was continuous for 10 days until animals were euthanized for vessel experiments and tissue collection. The minipumps used were capable of delivering relaxin for 14 days and thus tissue collection was within this duration.
# Determination of RXFP1 and PPARγ Target Gene Expression: MCA and PA from 4 untreated rats were collected to determine expression level of RXFP1, the primary relaxin receptor, using real-time qPCR methods. We also collected adipose tissue, pial arteries, and PA from vehicle, relaxin and relaxin+GW9662 groups (n=6 for each group) for determination of PPARγ target gene expression. All collected samples were stored in RNase inhibitor (1 unit/μl, RiboLock, Fermentas, Glen Burnie, Md., USA) at −80° C. for comparing expression of fatty acid translocase (FAT)/CD36 and liver X receptors-α (LXRα) for adipose tissue, and plasminogen activator inhibitor-1 (PAI-1) for vasculature. Standard techniques for real-time qPCR were performed by the Vermont Cancer Center DNA analysis facility at the University of Vermont, as described previously Cipolla et al. (2009) Stroke 40, 1451-1457. Briefly, RNA was extracted from tissues and concentration and integrity was determined by a NanoDrop ND-1000 Spectrophotometer (Wilmington, Del.) and an Agilent 2100 Bioanalyzer (Santa Clara, Calif., USA), respectively. Samples with low RNA quality were excluded. cDNA was then made by a SuperScript III Kit (Invitrogen, Carlsbad, Calif., USA). Real-time qPCR was set up as follows: 10 μL Universal PCR Master Mix (Applied Biosystems, Foster City, Calif., USA), 1 μL Assay on Demand (Applied Biosystems), 8 μL water, and 1 μL cDNA. β2-microglobulin (B2M, housekeeping control) and target genes were assessed using Assays on Demand from Applied Biosystems. […] Primers were designed across an exon-exon junction to avoid detecting genomic DNA. Thus, no DNase treatment of samples was necessary. All samples were run in duplicates using a 7900HT Sequence Detection System (Applied Biosystems). […]
# Data Calculations and Statistical Analysis: Percent tone was calculated as percent decrease in ID from the passive diameter at each intravascular pressure: [1−(IDactive/IDpassive)]×100%. Outer diameter (OD) was calculated from measured ID and WT: ID+2WT. Cross-sectional area (CSA) of the wall was calculated as: [(OD/2)2−(ID/2)2]×π. Data from qPCR study were analyzed using the −2^ΔΔCT method, as described previously Livak et al. (2001) Methods 25, 402-408. […]
substance,measurement,setting,value
relaxin,Gene expression of CD36 in adipose tissue,"relaxin vs vehicle, NP rats",decreased
same,PAI-1 expression in pial arteries,"relaxin vs vehicle, NP rats",did not significantly change
same,PAI-1 expression in PA,"relaxin vs vehicle, NP rats, low sample numbers",did not significantly change
same,Gene expression of LXR-α in adipose tissue,"similar trend as CD36 (decrease with relaxin, normalized by GW9662)",not statistically significant
